Experimental data published in patent EP4806435A1, “DIHYDROCHROMENE-DERIVATIVE-CONTAINING THERAPEUTIC AGENT FOR CANCER” (Sumitomo Pharma Co., Ltd., priority 2023, dated 2025).

Test system: patients with recurrent malignant glioma classified as WHO grade III or IV
Assay: Phase 1 dose-escalation clinical trial: safety (TEAEs, DLTs, MTD);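 also: dosing continued until unacceptable toxicity, consent withdrawal, loss to follow-up or investigator/sponsor decision, with cohorts of 1-6 patients per dose level and MTD estimated by BLRM from cumulative DLT data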
[1] = 180 mg QD (N=6), cutoff April 21, 2024
[2] = 240 mg (N=5), cutoff April 21, 2023
[3] = 240 mg QD (N=6), cutoff April 21, 2024
[4] = 360 mg QD (N=6), cutoff April 21, 2024
[5] = 480 mg daily (240 mg BID) (N=6), cutoff April 21, 2024

Procedure: Administration to each subject was continued until unacceptable toxicity occurred, consent was withdrawn, the subject was lost to follow-up, or discontinuation was determined by the investigator and/or the sponsor.
The present study consists of two parts: a dose-escalation part (Part 1) and a dose-expansion part (Part 2).
Each dose level was evaluated in cohorts of 1-6 patients. In all cohorts, administration of the investigational drug to the second and subsequent patients was permitted after completion of all safety assessments on Day 8 of Cycle 1 in the first patient. […] At dose level 2 in the dose-escalation part, at least three patients were required to be evaluated before escalation to a higher dose level. After completion of each cohort, the probability of observing a DLT at each dose level in the present study was updated using the BLRM based on cumulative data from the preceding cohorts, and the MTD was estimated.

CC1(C)Oc2cc(Cl)ccc2[C@@H]2OCC3(CCN(CCn4ccnc4)CC3)C[C@H]21 [Compound 1, (4'aR,10'bR)-8'-chloro-1-[2-(1H-imidazol-1-yl)ethyl]-5',5'-dimethyl-4'a,10'b-dihydro-2'H,4'H,5'H-spiro[piperidine-4,3'-pyrano[3,2-c][1]benzopyran] diphosphate]
TEAE: alopecia [1]: 1 (16.7) n (%) | TEAE: constipation [1]: 2 (33.3) n (%) | TEAE: decreased appetite [1]: 1 (16.7) n (%) | TEAE: decreased lymphocyte count [1]: 1 (16.7) n (%) | TEAE: decreased neutrophil count [1]: 0 n (%) | TEAE: decreased platelet count [1]: 1 (16.7) n (%) | TEAE: diarrhea [1]: 1 (16.7) n (%) | TEAE: dry skin [1]: 1 (16.7) n (%) | TEAE: fall [1]: 2 (33.3) n (%) | TEAE: fatigue [1]: 0 n (%) | TEAE: headache [1]: 0 n (%) | TEAE: hypertrigly-ceridaemia [1]: 1 (16.7) n (%) | TEAE: hyponatremia [1]: 0 n (%) | TEAE: increase in blood cholesterol [1]: 0 n (%) | TEAE: increased alanine aminotransferase [1]: 4 (66.7) n (%) | TEAE: increased aspartate aminotransferase [1]: 2 (33.3) n (%) | TEAE: maculopapular rash [1]: 0 n (%) | TEAE: nausea [1]: 2 (33.3) n (%) | TEAE: seizure [1]: 2 (33.3) n (%) | TEAE: vomiting [1]: 2 (33.3) n (%) | Number of patients with any TEAE [2]: 5 (100) n (%) | TEAE: constipation [2]: 3 (60.0) n (%) | TEAE: decreased appetite [2]: 1 (20.0) n (%) | TEAE: decreased lymphocyte count [2]: 2 (40.0) n (%) | TEAE: decreased neutrophil count [2]: 0 n (%) | TEAE: decreased platelet count [2]: 0 n (%) | TEAE: decreased white blood cell count [2]: 0 n (%) | TEAE: dry skin [2]: 3 (60.0) n (%) | TEAE: fall [2]: 0 n (%) | TEAE: headache [2]: 3 (60.0) n (%) | TEAE: hypertrigly-ceridaemia [2]: 1 (20.0) n (%) | TEAE: hyponatremia [2]: 0 n (%) | TEAE: increased alanine aminotransferase [2]: 4 (80.0) n (%) | TEAE: increased aspartate aminotransferase [2]: 2 (40.0) n (%) | TEAE: nausea [2]: 3 (60.0) n (%) | TEAE: seizure [2]: 1 (20.0) n (%) | TEAE: vomiting [2]: 2 (40.0) n (%) | maximum tolerated dose (MTD) (240 mg BID, dose as the present compound): 480 mg daily | Number of Patients with Any TEAE [3]: 6 (100) n (%) | TEAE: Confusional state [3]: 1 (16.7) n (%) | TEAE: Gait disturbance [3]: 0 n (%) | TEAE: Gastrointestinal disorder [3]: 0 n (%) | TEAE: Hiccups [3]: 0 n (%) | TEAE: Tremor [3]: 0 n (%) | TEAE: alopecia [3]: 1 (16.7) n (%) | TEAE: constipation [3]: 3 (50.0) n (%) | TEAE: decreased appetite [3]: 2 (33.3) n (%) | TEAE: decreased lymphocyte count [3]: 2 (33.3) n (%) | TEAE: decreased neutrophil count [3]: 0 n (%) | TEAE: decreased platelet count [3]: 0 n (%) | TEAE: diarrhea [3]: 1 (16.7) n (%) | TEAE: dry skin [3]: 4 (66.7) n (%) | TEAE: fall [3]: 0 n (%) | TEAE: fatigue [3]: 1 (16.7) n (%) | TEAE: headache [3]: 4 (66.7) n (%) | TEAE: hypertrigly-ceridaemia [3]: 1 (16.7) n (%) | TEAE: hyponatremia [3]: 0 n (%) | TEAE: increase in blood cholesterol [3]: 1 (16.7) n (%) | TEAE: increased alanine aminotransferase [3]: 6 (100) n (%) | TEAE: increased aspartate aminotransferase [3]: 2 (33.3) n (%) | TEAE: maculopapular rash [3]: 0 n (%) | TEAE: nausea [3]: 4 (66.7) n (%) | TEAE: seizure [3]: 1 (16.7) n (%) | TEAE: vomiting [3]: 2 (33.3) n (%) | serious TEAE: neoplasm progression (240 mg QD group, cutoff April 21, 2024): one | serious TEAE: neoplasm progression (240 mg group, cutoff April 21, 2023): one | Number of Patients with Any TEAE [4]: 6 (100) n (%) | TEAE: Confusional state [4]: 0 n (%) | TEAE: Gait disturbance [4]: 1 (16.7) n (%) | TEAE: Gastrointestinal disorder [4]: 1 (16.7) n (%) | TEAE: Hiccups [4]: 0 n (%) | TEAE: Tremor [4]: 2 (33.3) n (%) | TEAE: alopecia [4]: 2 (33.3) n (%) | TEAE: constipation [4]: 2 (33.3) n (%) | TEAE: decreased appetite [4]: 1 (16.7) n (%) | TEAE: decreased lymphocyte count [4]: 0 n (%) | TEAE: decreased neutrophil count [4]: 1 (16.7) n (%) | TEAE: decreased platelet count [4]: 1 (16.7) n (%) | TEAE: diarrhea [4]: 2 (33.3) n (%) | TEAE: dry skin [4]: 0 n (%) | TEAE: fall [4]: 2 (33.3) n (%) | TEAE: fatigue [4]: 3 (50.0) n (%) | TEAE: headache [4]: 1 (16.7) n (%) | TEAE: hypertrigly-ceridaemia [4]: 1 (16.7) n (%) | TEAE: hyponatremia [4]: 1 (16.7) n (%) | TEAE: increase in blood cholesterol [4]: 2 (33.3) n (%) | TEAE: increased alanine aminotransferase [4]: 4 (66.7) n (%) | TEAE: increased aspartate aminotransferase [4]: 3 (50.0) n (%) | TEAE: maculopapular rash [4]: 1 (16.7) n (%) | TEAE: nausea [4]: 6 (100) n (%) | TEAE: seizure [4]: 0 n (%) | TEAE: vomiting [4]: 4 (66.7) n (%) | DLT (Grade 3 maculopapular rash; recovered to Grade 1 with treatment interruption) (360 mg QD, cutoff April 21, 2024): one | DLT: Grade 3 maculo-papular rash (recovered to grade 1 with dose interruption) (360 mg cohort, as of September 2023): one and One | Number of Patients with Any TEAE [5]: 6 (100) n (%) | TEAE: Confusional state [5]: 2 (33.3) n (%) | TEAE: Gait disturbance [5]: 2 (33.3) n (%) | TEAE: Gastrointestinal disorder [5]: 1 (16.7) n (%) | TEAE: Hiccups [5]: 2 (33.3) n (%) | TEAE: Tremor [5]: 0 n (%)
